Laboratory results taken from ChEMBL document CHEMBL1156872, “Synthesis and discovery of 2,3-dihydro-3,8-diphenylbenzo[1,4]oxazines as a novel class of potent cholesteryl ester transfer protein inhibitors” (Bioorg Med Chem Lett, 2010).
In brackets after ≈: the same amount, converted by molar mass.

Tests used:
[1] = molecular target: T1, Cholesteryl ester transfer protein (Homo sapiens, UniProt P11597); assay: Inhibition of human cholesteryl ester transfer protein by scintillation proximity assay
T1 sequence (P11597 whole entry): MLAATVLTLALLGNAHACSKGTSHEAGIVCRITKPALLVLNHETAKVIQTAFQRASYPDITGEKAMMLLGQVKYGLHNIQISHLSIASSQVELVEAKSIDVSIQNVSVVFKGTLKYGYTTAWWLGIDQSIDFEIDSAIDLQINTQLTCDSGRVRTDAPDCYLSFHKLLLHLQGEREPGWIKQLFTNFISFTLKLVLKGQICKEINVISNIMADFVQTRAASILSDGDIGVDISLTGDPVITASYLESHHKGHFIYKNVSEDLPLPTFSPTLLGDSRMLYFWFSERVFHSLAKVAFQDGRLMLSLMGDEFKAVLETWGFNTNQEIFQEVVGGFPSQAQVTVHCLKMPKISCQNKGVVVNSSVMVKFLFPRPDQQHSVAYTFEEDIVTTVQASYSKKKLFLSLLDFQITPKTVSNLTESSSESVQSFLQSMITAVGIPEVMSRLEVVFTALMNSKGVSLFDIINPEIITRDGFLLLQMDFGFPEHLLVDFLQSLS

[2] = molecular target: T2, Cholesteryl ester transfer protein (Homo sapiens) (UniProt P11597); assay: Inhibition of human cholesteryl ester transfer protein at 1 uM by scintillation proximity assay
T2 sequence (whole entry): T1 sequence (P11597 whole entry)

[3] = Aqueous solubility at pH 2.0; type: physicochemical; conditions: aqueous medium
[4] = Aqueous solubility at pH 7.4; type: physicochemical; conditions: aqueous medium
Mus musculus [5] = assay: Increase in HDL cholesterol level in normal chow diet fed female CETP transgenic mouse at 30 mg/kg, po after 5 days; type: functional
Mus musculus [6] = assay: Increase in HDL cholesterol level in normal chow diet fed male CETP transgenic mouse at 3 mg/kg, po after 5 days; type: functional
[7] = Oral bioavailability in rat at 10 mg/kg; type: ADME, organism-based; conditions: in vivo
Mus musculus [8] = assay: Increase in HDL cholesterol level in normal chow diet fed female CETP transgenic mouse at 10 mg/kg, po after 5 days; type: functional
[9] = molecular target: T1, Cholesteryl ester transfer protein; assay: Inhibition of cholesteryl ester transfer protein in human plasma by [3H]CE HDL assay; type: cell-free
[10] = Volume of distribution at steady state in rat at 10 mg/kg, po and 2 mg/kg, iv; type: ADME, organism-based; conditions: in vivo, read-out: Vdss
Cytochrome P450 2C19 = Cytochrome P450 2C19 (Homo sapiens, UniProt P33261); assay: Inhibition of CYP2C19 in human liver microsomes; type: ADME, Microsome
Chain of Cytochrome P450 2C19 (P33261 whole entry): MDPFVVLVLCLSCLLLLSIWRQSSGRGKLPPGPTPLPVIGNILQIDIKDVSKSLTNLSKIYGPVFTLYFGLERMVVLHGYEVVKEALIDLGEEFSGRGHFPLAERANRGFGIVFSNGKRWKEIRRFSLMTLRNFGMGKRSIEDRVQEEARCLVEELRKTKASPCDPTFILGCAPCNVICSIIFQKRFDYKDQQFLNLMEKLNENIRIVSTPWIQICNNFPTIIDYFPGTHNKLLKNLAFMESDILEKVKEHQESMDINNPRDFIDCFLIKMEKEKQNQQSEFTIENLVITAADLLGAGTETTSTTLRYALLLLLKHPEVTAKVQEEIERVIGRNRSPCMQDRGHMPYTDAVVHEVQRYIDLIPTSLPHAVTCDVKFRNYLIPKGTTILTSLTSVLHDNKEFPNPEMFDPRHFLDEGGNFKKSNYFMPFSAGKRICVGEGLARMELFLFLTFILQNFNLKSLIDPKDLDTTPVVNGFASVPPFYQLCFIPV

[11] = Half life in human liver microsomes; type: ADME, Microsome
Cytochrome P450 2D6 = Cytochrome P450 2D6 (Homo sapiens, UniProt P10635); assay: Inhibition of CYP2D6 in human liver microsomes; type: ADME, Microsome
Chain of Cytochrome P450 2D6 (P10635 whole entry, canonical isoform): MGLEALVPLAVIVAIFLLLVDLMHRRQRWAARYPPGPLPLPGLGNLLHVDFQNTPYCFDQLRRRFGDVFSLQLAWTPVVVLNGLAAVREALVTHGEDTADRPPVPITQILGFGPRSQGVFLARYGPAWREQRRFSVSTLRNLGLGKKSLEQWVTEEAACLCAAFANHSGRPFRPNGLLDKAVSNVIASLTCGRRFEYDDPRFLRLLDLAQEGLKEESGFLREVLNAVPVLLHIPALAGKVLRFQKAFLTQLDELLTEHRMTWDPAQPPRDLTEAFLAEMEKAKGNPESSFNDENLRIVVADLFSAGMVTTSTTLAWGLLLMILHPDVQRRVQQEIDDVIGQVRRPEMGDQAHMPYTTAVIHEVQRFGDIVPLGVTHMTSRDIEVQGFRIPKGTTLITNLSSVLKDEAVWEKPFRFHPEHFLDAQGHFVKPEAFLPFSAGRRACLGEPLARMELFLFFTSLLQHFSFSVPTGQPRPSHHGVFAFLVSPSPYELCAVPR

Cytochrome P450 3A4 [12] = molecular target: T3, Cytochrome P450 3A4 (Homo sapiens, UniProt P08684); assay: Inhibition of CYP3A4 […] isoform in human liver microsomes; type: ADME, Microsome
T3 sequence (P08684 whole entry, canonical isoform): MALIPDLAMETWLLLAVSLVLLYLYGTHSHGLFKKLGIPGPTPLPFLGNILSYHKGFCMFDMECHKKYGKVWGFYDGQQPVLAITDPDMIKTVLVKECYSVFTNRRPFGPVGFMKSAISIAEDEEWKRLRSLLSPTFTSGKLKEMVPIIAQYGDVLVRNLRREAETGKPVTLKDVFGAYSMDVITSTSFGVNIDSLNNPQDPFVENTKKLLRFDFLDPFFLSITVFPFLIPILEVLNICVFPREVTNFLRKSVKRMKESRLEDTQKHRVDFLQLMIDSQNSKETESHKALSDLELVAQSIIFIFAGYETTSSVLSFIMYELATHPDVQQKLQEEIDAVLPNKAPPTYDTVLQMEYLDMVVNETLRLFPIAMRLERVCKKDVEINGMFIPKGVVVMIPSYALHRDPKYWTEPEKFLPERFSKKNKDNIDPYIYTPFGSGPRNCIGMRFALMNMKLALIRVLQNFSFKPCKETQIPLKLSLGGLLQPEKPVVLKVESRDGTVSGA

Hamster [13] = assay: Increase in HDL cholesterol level in high fat diet fed hamster at 30 mg/kg, po after 5 days; type: functional, Cricetinae
[14] = AUC in rat at 10 mg/kg, po and 2 mg/kg, iv; type: ADME, organism-based; conditions: plasma
Mus musculus [15] = assay: Increase in HDL cholesterol level in normal chow diet fed female CETP transgenic mouse at 3 mg/kg, po after 5 days; type: functional
[16] = Clearance in rat at 10 mg/kg, po and 2 mg/kg, iv; type: ADME, organism-based; conditions: in vivo
Cytochrome P450 1A2 = molecular target: T4, Cytochrome P450 1A2 (Homo sapiens, UniProt P05177); assay: Inhibition of CYP1A2 in human liver microsomes; type: ADME, Microsome
T4 sequence (P05177 whole entry): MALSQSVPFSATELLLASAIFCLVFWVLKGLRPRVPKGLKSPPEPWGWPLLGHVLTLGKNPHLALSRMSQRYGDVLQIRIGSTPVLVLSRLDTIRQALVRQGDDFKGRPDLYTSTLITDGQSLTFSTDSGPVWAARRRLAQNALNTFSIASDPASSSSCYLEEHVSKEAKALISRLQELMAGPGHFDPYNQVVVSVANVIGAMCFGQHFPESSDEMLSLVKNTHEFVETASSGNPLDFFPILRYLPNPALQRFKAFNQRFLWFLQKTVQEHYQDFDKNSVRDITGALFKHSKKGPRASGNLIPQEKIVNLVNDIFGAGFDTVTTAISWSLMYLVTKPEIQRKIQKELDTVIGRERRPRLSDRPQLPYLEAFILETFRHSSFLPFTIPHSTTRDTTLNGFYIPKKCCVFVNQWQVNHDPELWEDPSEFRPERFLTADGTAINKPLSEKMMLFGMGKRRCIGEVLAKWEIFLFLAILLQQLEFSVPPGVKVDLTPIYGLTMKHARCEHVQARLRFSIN

[17] = Tmax in rat at 10 mg/kg, po and 2 mg/kg, iv; type: ADME, organism-based; conditions: in vivo
Cytochrome P450 2C9 = Cytochrome P450 2C9 (Homo sapiens, UniProt P11712); assay: Inhibition of CYP2C9 in human liver microsomes; type: ADME, Microsome
Chain of Cytochrome P450 2C9 (P11712 whole entry, canonical isoform): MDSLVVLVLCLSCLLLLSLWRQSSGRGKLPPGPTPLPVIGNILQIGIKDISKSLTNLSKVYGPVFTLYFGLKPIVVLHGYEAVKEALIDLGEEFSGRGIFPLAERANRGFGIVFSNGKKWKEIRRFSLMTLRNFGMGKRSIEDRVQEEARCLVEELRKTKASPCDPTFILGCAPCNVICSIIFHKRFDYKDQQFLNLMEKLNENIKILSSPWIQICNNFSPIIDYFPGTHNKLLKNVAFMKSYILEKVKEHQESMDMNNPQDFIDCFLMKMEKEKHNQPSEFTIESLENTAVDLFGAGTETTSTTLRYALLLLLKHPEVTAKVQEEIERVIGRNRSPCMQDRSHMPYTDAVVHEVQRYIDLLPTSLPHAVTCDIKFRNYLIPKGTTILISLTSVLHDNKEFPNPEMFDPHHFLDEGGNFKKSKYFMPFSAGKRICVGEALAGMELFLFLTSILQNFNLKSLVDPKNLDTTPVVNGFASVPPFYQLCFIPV

Cytochrome P450 3A4 [18] = molecular target: T3, Cytochrome P450 3A4; assay: Inhibition of CYP3A4 tissue isoform in human liver microsomes; type: ADME, Microsome
Mus musculus [19] = assay: Increase in HDL cholesterol level in normal chow diet fed male CETP transgenic mouse at 10 mg/kg, po after 5 days; type: functional
Mus musculus [20] = assay: Increase in HDL cholesterol level in normal chow diet fed male CETP transgenic mouse at 30 mg/kg, po after 5 days; type: functional
Hamster [21] = assay: Increase in HDL cholesterol level in high fat diet fed hamster at 10 mg/kg, po after 5 days; type: functional, Cricetinae

## C[C@H](O)CN1c2cccc(-c3cccc(OC(F)(F)F)c3)c2OC[C@@H]1c1cccc(OC(F)(F)C(F)F)c1
[1]
  IC50: 0.088 µM
[2]
  inhibition: 50%

## CC(=O)CN1c2cccc(-c3cccc(OC(F)(F)F)c3)c2OC[C@@H]1c1cccc(OC(F)(F)C(F)F)c1
[2]
  inhibition: 5%

## COC(=O)N1c2cccc(-c3cccc(OC(F)(F)F)c3)c2OCC1c1cccc(OC(F)(F)C(F)F)c1 (racemic)
[2]
  inhibition: 16%

## OC(CN1c2cccc(-c3cccc(F)c3)c2OCC1c1cccc(OC(F)(F)C(F)F)c1)C(F)(F)F (mixture of isomers)
[2]
  inhibition: 79%

## O[C@@H](CN1c2cccc(-c3cccc(OC(F)(F)F)c3)c2OC[C@H]1c1cccc(OC(F)(F)C(F)F)c1)C(F)(F)F
[2]
  inhibition: 14%

## O[C@@H](CN1c2cccc(-c3cccc(OC(F)(F)F)c3)c2CC[C@@H]1c1cccc(OC(F)(F)C(F)F)c1)C(F)(F)F
[3]
  solubility: < 1 µg/mL
[4]
  solubility: < 1 µg/mL

## O=C(CN1c2cccc(-c3cccc(OC(F)(F)F)c3)c2OC[C@@H]1c1cccc(OC(F)(F)C(F)F)c1)C(F)(F)F
[2]
  inhibition: 5%

## O[C@@H](CN1c2cccc(-c3cc(F)cc(F)c3)c2OC[C@@H]1c1cccc(OC(F)(F)F)c1)C(F)(F)F
[2]
  inhibition: 100%

## OC(CN1c2cccc(-c3cccc(OC(F)(F)F)c3)c2OCC1c1cccc(Cl)c1)C(F)(F)F (mixture of isomers)
[2]
  inhibition: 62%

## O[C@H](CN1c2cccc(-c3cccc(OC(F)(F)F)c3)c2OC[C@H]1c1cccc(OC(F)(F)C(F)F)c1)C(F)(F)F
[2]
  inhibition: 26%

## CCOc1cccc(C2COc3c(-c4cccc(OC(F)(F)F)c4)cccc3N2CC(O)C(F)(F)F)c1 (mixture of isomers)
[2]
  inhibition: 56%

## O[C@@H](CN1c2cccc(-c3cccc(OC(F)(F)F)c3)c2OC[C@@H]1c1cccc(OC(F)(F)C(F)F)c1)C(F)(F)F
Mus musculus [5]
  Activity: 24%
Mus musculus [6]
  Activity: 11%
[7]
  bioavailability: 53%
Mus musculus [8]
  Activity: 8%
[9]
  IC50: 1 µM
[3]
  solubility: 11 µg/mL (≈ 18.4 µM)
[10]
  Vd: 0.73 L/kg
[2]
  inhibition: 91%
Cytochrome P450 2C19
  IC50: > 100 µM
[11]
  half-life: 1.03 h
Cytochrome P450 2D6
  IC50: > 100 µM
Cytochrome P450 3A4 [12]
  IC50: > 100 µM
Hamster [13]
  Activity: 16%
[14]
  AUC: 19800 ng·h/mL
Mus musculus [15]
  Activity: 4%
[4]
  solubility: 2.7 µg/mL (≈ 4.5 µM)
[16]
  clearance: 4.6 mL/min/kg
Cytochrome P450 1A2
  IC50: > 100 µM
[17]
  Tmax: 11.5 h
Cytochrome P450 2C9
  IC50: > 100 µM
Cytochrome P450 3A4 [18]
  IC50: > 100 µM
Mus musculus [19]
  Activity: 10%
Mus musculus [20]
  Activity: 28%
Hamster [21]
  Activity: 9%

## OC(CN1c2cccc(-c3cccc(OC(F)(F)F)c3)c2OCC1c1ccc2c(c1)OC(F)(F)O2)C(F)(F)F (mixture of isomers)
[1]
  IC50: 0.271 µM
[2]
  inhibition: 48%

## OCCCN1c2cccc(-c3cccc(OC(F)(F)F)c3)c2OCC1c1cccc(OC(F)(F)C(F)F)c1 (racemic)
[2]
  inhibition: 10%

## O[C@@H](CN1c2cccc(-c3cc(F)c(F)c(F)c3)c2OC[C@@H]1c1cccc(OC(F)(F)C(F)F)c1)C(F)(F)F
[2]
  inhibition: 101%

## OC(CN1c2cccc(-c3cccc(OC(F)(F)F)c3)c2OCC1c1ccccc1OC(F)(F)C(F)F)C(F)(F)F (mixture of isomers)
[2]
  inhibition: 6%

## OC(CN1c2cccc(-c3cccc(OC(F)(F)F)c3)c2OCC1c1cccc(OC(F)(F)C(F)F)c1)C(F)(F)F (mixture of isomers)
[1]
  IC50: 0.045 µM
[2]
  inhibition: 96%

## O[C@@H](CN1c2cccc(-c3cc(F)c(F)c(F)c3)c2OC[C@@H]1c1cccc(OC(F)(F)F)c1)C(F)(F)F
[2]
  inhibition: 94%

## COCCN1c2cccc(-c3cccc(OC(F)(F)F)c3)c2OCC1c1cccc(OC(F)(F)C(F)F)c1 (racemic)
[2]
  inhibition: 25%

## O[C@@H](CN1c2cccc(-c3cc(C(F)(F)F)cc(C(F)(F)F)c3)c2OC[C@@H]1c1cccc(OC(F)(F)C(F)F)c1)C(F)(F)F
[2]
  inhibition: 59%

## COc1cccc(C2COc3c(-c4cccc(OC(F)(F)F)c4)cccc3N2CC(O)C(F)(F)F)c1 (mixture of isomers)
[2]
  inhibition: 29%
